For one data set, the target named is Cytochrome P450 2C9 (Homo sapiens, UniProt P11712). Briefly: Inhibition of CYP2C9 (unknown origin).
The next data set deals with Cytochrome P450 2C19 (Homo sapiens, UniProt P33261). Description: Inhibition of CYP2C19 (unknown origin).
Data set [1] concerns the target Potassium voltage-gated channel subfamily H member 2 (Homo sapiens, UniProt Q12809). Description: Inhibition of human ERG expressed in CHO cells at holding potential of -80 mV by whole cell patch clamp assay. For orientation: Patch clamp records ionic current or voltage across a cell membrane.

Structures are written as SMILES. pIC50: −log10 of the molar value.

The text below walks through data of BindingDB's records for doi:10.1016/j.ejmech.2021.113986 (Yantai University, 2022).

By pIC50 is commonly meant the negative decadic logarithm of the IC50, by convention in mol/L. The low end stands for a high IC50, the high end for a low IC50.

Sequence of Cytochrome P450 2C9 (P11712 whole entry): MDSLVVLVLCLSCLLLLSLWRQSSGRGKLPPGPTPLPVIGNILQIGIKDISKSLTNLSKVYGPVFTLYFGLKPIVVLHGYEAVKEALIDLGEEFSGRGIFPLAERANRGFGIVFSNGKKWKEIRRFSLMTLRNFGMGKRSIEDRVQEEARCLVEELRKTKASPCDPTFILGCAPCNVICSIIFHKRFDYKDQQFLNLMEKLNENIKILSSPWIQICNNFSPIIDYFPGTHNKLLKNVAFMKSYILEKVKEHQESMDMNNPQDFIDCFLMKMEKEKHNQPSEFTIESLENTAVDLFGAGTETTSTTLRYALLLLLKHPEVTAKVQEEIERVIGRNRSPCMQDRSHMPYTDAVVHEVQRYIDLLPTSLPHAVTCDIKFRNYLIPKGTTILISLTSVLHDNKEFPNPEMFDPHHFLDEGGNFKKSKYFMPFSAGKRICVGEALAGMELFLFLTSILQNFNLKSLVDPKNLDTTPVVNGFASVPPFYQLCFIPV
Sequence of Cytochrome P450 2C19 (P33261 whole entry): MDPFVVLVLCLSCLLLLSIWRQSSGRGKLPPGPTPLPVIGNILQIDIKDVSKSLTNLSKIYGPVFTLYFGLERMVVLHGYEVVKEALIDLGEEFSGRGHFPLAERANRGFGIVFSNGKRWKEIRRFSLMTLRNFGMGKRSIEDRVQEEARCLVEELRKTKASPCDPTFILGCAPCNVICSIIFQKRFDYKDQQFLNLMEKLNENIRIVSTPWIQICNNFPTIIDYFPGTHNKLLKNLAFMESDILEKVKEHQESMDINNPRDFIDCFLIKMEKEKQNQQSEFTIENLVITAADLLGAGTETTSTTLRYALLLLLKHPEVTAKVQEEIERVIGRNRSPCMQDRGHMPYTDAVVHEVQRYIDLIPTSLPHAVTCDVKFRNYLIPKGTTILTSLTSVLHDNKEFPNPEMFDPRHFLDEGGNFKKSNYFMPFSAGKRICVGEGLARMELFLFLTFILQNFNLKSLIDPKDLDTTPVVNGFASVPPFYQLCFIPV
Sequence of Potassium voltage-gated channel subfamily H member 2 (Q12809 whole entry): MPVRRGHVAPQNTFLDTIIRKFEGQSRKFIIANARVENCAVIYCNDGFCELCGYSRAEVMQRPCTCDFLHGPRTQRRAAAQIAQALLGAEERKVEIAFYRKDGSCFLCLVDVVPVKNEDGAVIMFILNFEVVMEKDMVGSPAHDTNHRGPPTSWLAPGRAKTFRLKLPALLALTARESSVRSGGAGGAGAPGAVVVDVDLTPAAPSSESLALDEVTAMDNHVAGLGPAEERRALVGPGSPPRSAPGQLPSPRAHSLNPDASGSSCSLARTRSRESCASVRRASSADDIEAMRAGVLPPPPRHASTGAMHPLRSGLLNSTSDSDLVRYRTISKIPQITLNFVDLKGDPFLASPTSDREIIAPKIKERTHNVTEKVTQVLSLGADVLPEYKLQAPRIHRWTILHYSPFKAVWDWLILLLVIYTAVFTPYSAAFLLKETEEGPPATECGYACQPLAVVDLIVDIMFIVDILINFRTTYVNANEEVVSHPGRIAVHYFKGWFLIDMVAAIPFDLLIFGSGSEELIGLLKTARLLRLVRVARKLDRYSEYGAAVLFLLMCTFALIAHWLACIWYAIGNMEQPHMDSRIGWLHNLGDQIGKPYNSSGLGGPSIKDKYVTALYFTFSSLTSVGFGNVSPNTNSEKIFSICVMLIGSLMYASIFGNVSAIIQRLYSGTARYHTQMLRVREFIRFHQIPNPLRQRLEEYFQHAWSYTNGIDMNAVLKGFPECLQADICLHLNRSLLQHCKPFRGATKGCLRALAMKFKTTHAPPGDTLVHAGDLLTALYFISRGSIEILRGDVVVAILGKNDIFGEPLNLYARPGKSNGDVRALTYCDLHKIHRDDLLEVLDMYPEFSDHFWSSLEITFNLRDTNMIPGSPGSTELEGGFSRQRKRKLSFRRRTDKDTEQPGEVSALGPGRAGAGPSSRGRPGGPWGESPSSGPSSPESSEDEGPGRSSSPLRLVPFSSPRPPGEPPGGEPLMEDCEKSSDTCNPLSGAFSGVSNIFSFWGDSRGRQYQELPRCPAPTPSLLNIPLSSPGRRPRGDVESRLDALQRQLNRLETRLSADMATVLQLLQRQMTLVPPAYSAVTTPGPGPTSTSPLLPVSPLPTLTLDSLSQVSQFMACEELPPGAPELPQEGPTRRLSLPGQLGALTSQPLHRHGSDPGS

With `c1ccc([C@]2(CCNCc3scc4c3CCC4)CCO[C@]3(CCOC3)C2)nc1` [US11124523, Example (+)-2], the negative logarithm of the IC50 (pIC50) against Cytochrome P450 2C9 was under 4.30; at Cytochrome P450 2C19 it was under 4.30; in data set [1], under 4.40.

The compound `Fc1ccc([C@]2(CCNCc3cccc(Cl)c3)CCO[C@]3(CCOC3)C2)nc1` [US11124523, Example (+)-16] had a pIC50 on Cytochrome P450 2C9 of under 4.30.
